Measured values taken from US7368453B2, “Quinazolinone compounds with reduced bioaccumulation” (Chiron Corporation, priority 2003, dated 2008).
Where two headings read alike, the source gives them in different places.

Assay: Tissue half-life (t1/2) and Cmax in plasma, brain, kidney and liver after oral administration to CD-1 mice
Format: in vivo, mouse
Conditions: male, mouse
Method: In vivo studies were conducted to observe the effect of the compounds of the invention in the subject animal. Male CD-1 mice, body weight of 20 grams at arrival, were used in these studies. Mice were given 30 mg/kg of compound in HPMC/Tween solution or suspension via oral gavage. Plasma, brain, and liver samples were collected at time periods of 1, 2, 4, 8, and 24 hours post dosing. One mouse was used per time point. Thus, a total of 5 mice were used for each compound tested. For sample collection, mice were euthanized with CO2. Blood samples were taken by cardiac puncture and kept on ice. Brain and liver samples were collected immediately after bleeding and the samples were kept on dry ice. For calculation of tissue half-lives (t1/2s), the terminal rate constant k was estimated by the absolute value of the slope of a log-linear regression of the terminal phase of the tissue concentration-time profile. The tissue half-life t1/2 is ln(2)/k.
The following table includes t1/2 data for plasma, brain, kidney, and liver obtained after oral administration.
Tissue Half-Life Data for Various Quinazolinone Compounds (PO)

[1] = liver t1/2, 30 mg/kg oral gavage (PO), read-out: Half-Lives (h) Liver (converted)
[2] = brain t1/2, 30 mg/kg oral gavage (PO), read-out: Half-Lives (h) Brain (converted)
[3] = plasma t1/2, 30 mg/kg oral gavage (PO), read-out: Half-Lives (h) Plasma (converted)
[4] = kidney t1/2, 30 mg/kg oral gavage (PO), read-out: Half-Lives (h) Kidney (converted)

| Compound | half-life [1] [h] | half-life [2] [h] | half-life [3] [h] | half-life [4] [h] |
| --- | --- | --- | --- | --- |
| C[C@@H]1[C@@H](N=C(Nc2ccc3c(=O)n(CCc4ccc(Cl)cc4Cl)c(-c4cnccn4)nc3c2)N2CCN[C@@H](C(F)F)C2)C[C@H]2C[C@@H]1C2(C)C [Example 228, (3R)-N-{3-[2-(2,4-dichlorophenyl)ethyl]-4-oxo-2-pyrazin-2-yl-3,4-dihydroquinazolin-7-yl}-3-(difluoromethyl)-N′-[(1S,2S,3S,5R)-2,6,6-trimethylbicyclo[3.1.1]hept-3-yl]piperazine-1-carboximidamide] | 9.1 | – | – | – |
| C[C@@H]1C(/N=C(/Nc2ccc3c(=O)n(CCc4ccc(Cl)cc4Cl)c(-c4cnccn4)nc3c2)N2CC(=O)N[C@@H](C)C2)C[C@H]2C[C@@H]1C2(C)C (stereo partly drawn) [Example 229, (3S)-N-{3-[2-(2,4-dichlorophenyl)ethyl]-4-oxo-2-pyrazin-2-yl-3,4-dihydroquinazolin-7-yl}-3-methyl-5-oxo-N′-[(1S,2S3S,5R)-2,6,6-trimethylbicyclo[3.1.1]hept-3-yl]piperazine-1-carboximidamide] | 16 | 13 | 9 | – |
| C[C@@H]1[C@@H](N=C(Nc2ccc3c(=O)n(CCc4ccc(Br)cc4)c(-c4cccnc4)nc3c2)N2CC(=O)N[C@@H](C)C2)C[C@H]2C[C@@H]1C2(C)C [Example 230, (3S)-N-{3-[2-(4-bromophenyl)ethyl]-4-oxo-2-pyridin-3-yl-3,4-dihydroquinazolin-7-yl}-3-methyl-5-oxo-N′-[(1S,2S,3S,5R)-2,6,6-trimethylbicyclo[3.1.1]hept-3-yl]piperazine-1-carboximidamide] | 5.9 | – | 3.1 | – |
| C[C@@H]1[C@@H](N=C(Nc2ccc3c(=O)n(CCc4ccc(Br)cc4)c(-c4cnccn4)nc3c2)N2CCN[C@@H](C(F)F)C2)C[C@H]2C[C@@H]1C2(C)C [Example 231, (3R)-N-{3-[2-(4bromophenyl)ethyl]-4-oxo-2-pyrazin-2-yl-3,4-dihydroquinazolin-7-yl]-3-(difluoromethyl)-N′-[(1S,2S,3S,5R)-2,6,6-trimethylbicyclo[3.1.1]hept-3-yl]piperazine-1-carboximidamide] | 4.6 | 15 | 2.6 | – |
| C[C@@H]1[C@@H](N=C(Nc2ccc3c(=O)n(CCc4ccc(Br)cc4F)c(-c4cnccn4)nc3c2)N2CCN[C@@H](C(F)F)C2)C[C@H]2C[C@@H]1C2(C)C [Example 233, (3R)-N-{3-[2-(4-bromo-2-fluorophenyl)ethyl]-4-oxo-2-pyrazin-2-yl-3,4-dihydroquinazolin-7-yl}-3-(difluoromethyl)-N′-[(1S,2S,3S,5R)-2,6,6-trimethylbicyclo[3.1.1]hept-3-yl]piperazine-1-carboximidamide] | 44 | 15 | 6.4 | – |
| COc1ccc(CCn2c(-c3cnccn3)nc3cc(NC(=N[C@H]4C[C@H]5C[C@@H]([C@@H]4C)C5(C)C)N4CCN[C@@H](C(F)F)C4)ccc3c2=O)c(F)c1 [Example 234, (3R)-3-(difluoromethyl)-N-{3-[2-(2-fluoro-4-methoxyphenyl)ethyl]-4-oxo-2-pyrazin-2-yl-3,4-dihydroquinazolin-7-yl}-N′-[(1S,2S,3S,5R)-2,6,6-trimethylbicyclo[3.1.1]hept-3-yl]piperazine-1-carboximidamide] | 4.9 | 2.6 | 3.5 | – |
| C[C@@H]1[C@@H](N=C(Nc2ccc3c(=O)n(CCc4ccc(Cl)cc4)c(-c4cnccn4)nc3c2)N2CCN[C@@H](C(F)F)C2)C[C@H]2C[C@@H]1C2(C)C [Example 235, (3R)-N-{3-[2-(4-chlorophenyl)ethyl]-4-oxo-2-pyrazin-2-yl-3,4-dihydroquinazolin-7-yl}-3-(difluoromethyl)-N′-[(1 S,2S,3S,5R)-2,6,6-trimethylbicyclo[3.1.1]hept-3-yl]piperazine-1-carboximidamide] | 5.6 | 6.1 | 4.7 | – |
| C[C@@H]1[C@@H](N=C(Nc2ccc3c(=O)n(CCc4ccc(Cl)cc4)c(-c4c[nH]c5ccccc45)nc3c2)N2CC(=O)N[C@@H](C)C2)C[C@H]2C[C@@H]1C2(C)C [Example 236, (3S)-N-[3-[2-(4-chlorophenyl)ethyl]-2-(1H-indol-3-yl)-4-oxo-3,4-dihydroquinazolin-7-yl]-3-methyl-5-oxo-N′-[(1S,2S,3S,5R)-2,6,6-trimethylbicyclo[3.1.1]hept-3-yl]piperazine-1-carboximidamide] | 4.2 | – | 7.7 | – |
| COc1ccc(CCn2c(CN3CCN(C)CC3)nc3cc(NC(=N[C@H]4C[C@H]5C[C@@H]([C@@H]4C)C5(C)C)N4CC(=O)N[C@@H](C)C4)ccc3c2=O)c(F)c1 [Example 239, (3S)-N-{3-[2-(2-fluoro-4-methoxyphenyl)ethyl]-2-[(4-methylpiperazin-1-yl)methyl]-4-oxo-3,4-dihydroquinazolin-7-yl}-3-methyl-5-oxo-N-[(1S,2S,3S,5R)-2,6,6-trimethylbicyclo[3.1.1]hept-3-yl]piperazine-1-carboximidamide] | – | 3.6 | 4.5 | – |
| COc1ccc(CCn2c(-c3cccnc3)nc3cc(NC(=N[C@H]4C[C@H]5C[C@@H]([C@@H]4C)C5(C)C)N4CCN(O)[C@@H](C)C4)ccc3c2=O)c(F)c1 [Example 245, (3S)-N-{3[2(2-fluoro-4-methoxyphenyl)ethyl]-4-oxo-2-pyridin-3-yl-3,4-dihydroquinazolin-7-yl}-4-hydroxy-3-methyl-N′-[(1S,2S,3S,5R)-2,6,6-trimethylbicyclo[3.1.1]hept-3-yl]piperazine-1-carboximidamide] | 5.2 | 3.1 | 2.2 | 1.7 |
| COc1ccc(CCn2c(-c3cccnc3)nc3cc(N/C(=N/C4C[C@H]5C[C@@H]([C@@H]4C)C5(C)C)N4CCN(C#N)[C@@H](C)C4)ccc3c2=O)c(F)c1 (some centres unmarked) [Example 246] | 18 | 5.8 | 5.7 | 3.1 |
| COc1ccc(CCn2c(-c3cccnc3)nc3cc(NC(=N[C@H]4C[C@H]5C[C@@H]([C@@H]4C)C5(C)C)N4CCN(CC#N)[C@@H](C)C4)ccc3c2=O)c(F)c1 [Example 247, (3S)-4-(cyanomethyl)-N-{3-[2-(2-fluoro-4-methoxyphenyl)ethyl]-4-oxo-2-pyridin-3-yl-3,4-dihydroquinazolin-7-yl}-3-methyl-N′-[(1S,2S,3S,5R)-2,6,6-trimethylbicyclo[3.1.1]hept-3-yl]piperazine-1-carboximidamide] | 8 | 12 | 18 | 11 |
| COc1ccc(CCn2c(-c3cccnc3)nc3cc(NC(=N[C@H]4C[C@H]5C[C@@H]([C@@H]4C)C5(C)C)N4CCN[C@@H](CF)C4)ccc3c2=O)c(F)c1 [Example 248, (3R)-N-{3-[2-(2-fluoro-4-methoxyphenyl)ethyl]-4-oxo-2-pyridin-3-yl-3,4-dihydroquinazolin-7-yl}-3-(fluoromethyl)-N′-[(1S,2S,3S,5R)-2,6,6-trimethylbicyclo[3.1.1]hept-3-yl]piperazine-1-carboximidamide] | 6.2 | 14 | 5.3 | 11 |
| COc1ccc(CCn2c(-c3ccncc3)nc3cc(NC(=N[C@H]4C[C@H]5C[C@@H]([C@@H]4C)C5(C)C)N4CCN[C@@H](CF)C4)ccc3c2=O)c(F)c1 [Example 250] | 8.8 | 3 | 26 | 5.7 |
| COc1ccc(CCn2c(-c3cnccn3)nc3cc(NC(=N[C@H]4C[C@H]5C[C@@H]([C@@H]4C)C5(C)C)N4CCN[C@@H](CF)C4)ccc3c2=O)c(F)c1 [Example 251, (3R)-N-{3-[2-(2-fluoro-4-methoxyphenyl)ethyl]-4-oxo-2-pyrazin-2-yl-3,4-dihydroquinazolin-7-yl}-3-(fluoromethyl)-N′-[(1S,2S,3S,5R)-2,6,6-trimethylbicyclo[3.1.1]hept-3-yl]piperazine-1-carboximidamide] | 6.8 | 5.4 | 4 | 8.6 |
| COc1ccc(CCn2c(-c3nnc[nH]3)nc3cc(NC(=N[C@H]4C[C@H]5C[C@@H]([C@@H]4C)C5(C)C)N4CCN[C@@H](CF)C4)ccc3c2=O)c(F)c1 [Example 252, (3R)-N-[3-[2-(2-fluoro-4-methoxyphenyl)ethyl]-4-oxo-2-(4H-1,2,4-triazol-3-yl)-3,4-dihydroquinazolin-7-yl]-3-(fluoromethyl)-N′-[(1S,2S,3S,5R)-2,6,6-trimethylbicyclo[3.1.1]hept-3-yl]piperazine-1-carboximidamide] | 16 | – | – | 8.4 |
| COc1ccc(CCn2c(N3CCOCC3)nc3cc(NC(=N[C@H]4C[C@H]5C[C@@H]([C@@H]4C)C5(C)C)N4CCN[C@@H](CF)C4)ccc3c2=O)c(F)c1 [Example 253] | 6.9 | 27 | 7.3 | 14 |
| COc1ccc(CCn2c(-c3nccs3)nc3cc(NC(=N[C@H]4C[C@H]5C[C@@H]([C@@H]4C)C5(C)C)N4CCN[C@@H](CF)C4)ccc3c2=O)c(F)c1 [Example 254, (3R)-N-[3-[2-(2-fluoro-4-methoxyphenyl)ethyl]-4-oxo-2-(1,3-thiazol-2-yl)-3,4-dihydroquinazolin-7-yl]-3-(fluoromethyl)-N′-[(1 S,2S,3S,5R)-2,6,6-trimethylbicyclo[3.1.1]hept-3-yl]piperazine-1-carboximidamide] | 20 | 11 | 15 | 9.6 |
